In US11053235B2, “Substituted 1,4-dihydropyrimidines for the treatment of HBV infection or HBV-induced diseases” (Janssen Sciences Ireland Unlimited Company, priority 2018, dated 2021):

Assays:
[1] = Cytotoxicity determination in HepG2.2.15 cells (CCK-8); type: cell-based; conditions: human, 6 days treatment, CCK-8, highest concentration 100 uM
Method in brief: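 HepG2.2.15 cells seeded at 5,000 cells/well in 2% FBS medium and exposed to compounds for 6 days (medium refreshed once), 8 three-fold dilutions from 100 uM. Viability read by CCK-8 after 2.5 h at 37 °C, absorbance 450 nm with 630 nm reference; CC50 calculated.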

HBV = experiment: Anti-viral assay in HepG2.2.15 cells: HBV inhibitory activity (HBV DNA in culture medium by q-PCR); type: cell-based; conditions: Hepatitis B virus, HepG2.2.15, 144 h, HepG2.2.15 cells, 6 days treatment, HBV DNA in culture medium by q-PCR, highest concentration 10 uM; read-out: EC50
Method in brief: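 HepG2.2.15 cells seeded at 40,000/well in 2% FBS medium, dosed next day for 6 days (medium refreshed once midway); 8-point 3-fold dilutions from 10 uM top. HBV DNA in culture medium extracted and quantified by q-PCR; EC50 calculated from dose-response.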

Compound	CC50 at 6 days [1] [µM]	EC50 (HBV) [µM]
COC(=O)C1=C(C2CCN(c3ncc(C(=O)O)s3)CC2)NC(c2nccs2)=NC1c1ccc(F)c(F)c1Br (single isomer, unassigned) [II-82-B, 2-(4-(6-(2-Bromo-3,4-difluorophenyl)-5-(methoxycarbonyl)-2-(thiazol-2-yl)-3,6-dihydropyrimidin-4-yl)piperidin-1-yl)thiazole-5-carboxylic Acid]	9.48	0.0091
COC(=O)C1=C(C2CCN(c3ncc(C(=O)O)s3)CC2)NC(c2nccs2)=NC1c1cccc(F)c1Br (single isomer, unassigned) [II-83-B, 2-(4-(6-(2-Bromo-3-fluorophenyl)-5-(methoxycarbonyl)-2-(thiazol-2-yl)-3,6-dihydropyrimidin-4-yl)piperidin-1-yl)thiazole-5-carboxylic Acid]	2.84	0.016
COC(=O)C1=C(C2CCN(c3ncc(C(=O)O)s3)CC2)NC(c2nccs2)=NC1c1ccc(F)cc1Br (single isomer, unassigned) [II-84-B, 2-(4-(6-(2-Bromo-4-fluorophenyl)-5-(methoxycarbonyl)-2-(thiazol-2-yl)-3,6-dihydropyrimidin-4-yl)piperidin-1-yl)thiazole-5-carboxylic Acid]	14.9	0.0064
CCOC(=O)C1=C(C2CCN(c3nc(C(=O)O)co3)C2)NC(c2nccs2)=NC1c1ccc(F)c(F)c1Cl (single isomer, unassigned) [II-85-A, 2-(3-(6-(2-chloro-3,4-difluorophenyl)-5-(ethoxycarbonyl)-2-(thiazol-2-yl)-3,6-dihydropyrimidin-4-yl)pyrrolidin-1-yl)oxazole-4-carboxylic Acid]	4.49	0.72
CCOC(=O)C1=C(C2CN(c3nc(C(=O)O)co3)C2)NC(c2nccs2)=NC1c1ccc(F)c(F)c1Cl (single isomer, unassigned) [II-86-B, 2-(3-(6-(2-Chloro-3,4-difluorophenyl)-5-(ethoxycarbonyl)-2-(thiazol-2-yl)-3,6-dihydropyrimidin-4-yl)azetidin-1-yl)oxazole-4-carboxylic Acid]	9.4	2.87
COC(=O)C1=C(C2CN(C(=O)c3ccccc3)C2)NC(c2nccs2)=NC1c1ccc(F)cc1Cl (single isomer, unassigned) [II-87-A, Methyl 6-(1-benzoylazetidin-3-yl)-4-(2-chloro-4-fluorophenyl)-2-(thiazol-2-yl)-1,4-dihydropyrimidine-5-carboxylate]	9.86	4.02
COC(=O)C1=C(C2CN(C(=O)c3cnoc3C)C2)NC(c2nccs2)=NC1c1ccc(F)cc1Cl (single isomer, unassigned) [II-88-B, methyl 4-(2-chloro-4-fluorophenyl)-6-(1-(5-methylisoxazole-4-carbonyl)azetidin-3-yl)-2-(thiazol-2-yl)-1,4-dihydropyrimidine-5-carboxylate]	9.96	2.05
COC(=O)C1=C(C2CCN(c3cc(C(=O)O)c(C)cn3)CC2)NC(c2nccs2)=NC1c1ccc(F)cc1Cl (single isomer, unassigned) [II-89-B, 2-(4-(6-(2-Chloro-4-fluorophenyl)-5-(methoxycarbonyl)-2-(thiazol-2-yl)-3,6-dihydropyrimidin-4-yl)piperidin-1-yl)-5-methylisonicotinic Acid]	20.3	0.009
COC(=O)C1=C(C2CCN(c3ncc(N4CCC(C(=O)O)CC4)cn3)CC2)NC(c2nccs2)=NC1c1ccc(F)cc1Cl (single isomer, unassigned) [II-90-B, 1-(2-(4-(6-(2-chloro-4-fluorophenyl)-5-(methoxycarbonyl)-2-(thiazol-2-yl)-3,6-dihydropyrimidin-4-yl)piperidin-1-yl)pyrimidin-5-yl)piperidine-4-carboxylic acid]	19	0.0054
COC(=O)C1=C(C2CCN(c3ncc(N(C)C)c(C(=O)O)n3)CC2)NC(c2nccs2)=NC1c1ccc(F)c(F)c1Cl (single isomer, unassigned) [II-91-B, 2-(4-(6-(2-chloro-3,4-difluorophenyl)-5-(methoxycarbonyl)-2-(thiazol-2-yl)-3,6-dihydropyrimidin-4-yl)piperidin-1-yl)-5-(dimethylamino)pyrimidine-4-carboxylic Acid]	26.1	0.012
COC(=O)C1=C(C2CCN(c3ncc(N)c(C(=O)O)n3)CC2)NC(c2nccs2)=NC1c1ccc(F)c(F)c1Cl (single isomer, unassigned) [II-92-B, 5-amino-2-(4-(6-(2-chloro-3,4-difluorophenyl)-5-(methoxycarbonyl)-2-(thiazol-2-yl)-3,6-dihydropyrimidin-4-yl)piperidin-1-yl)pyrimidine-4-carboxylic Acid]	18.3	0.007
COC(=O)C1=C(C2CCN(c3cc(C(=O)O)c(N(C)C)cn3)CC2)NC(c2nccs2)=NC1c1ccc(F)c(F)c1Cl (single isomer, unassigned) [II-93-B, 2-(4-(6-(2-chloro-3,4-difluorophenyl)-5-(methoxycarbonyl)-2-(thiazol-2-yl)-3,6-dihydropyrimidin-4-yl)piperidin-1-yl)-5-(dimethylamino)isonicotinic Acid]	28.9	0.0066
COC(=O)C1=C(C2CCN(c3ncc(C)c(C(=O)O)n3)CC2)NC(c2nccs2)=NC1c1ccc(F)c(F)c1C (single isomer, unassigned) [II-94-B, 2-(4-(6-(3,4-Difluoro-2-methylphenyl)-5-(methoxycarbonyl)-2-(thiazol-2-yl)-3,6-dihydropyrimidin-4-yl)piperidin-1-yl)-5-methylpyrimidine-4-carboxylic Acid]	26.8	0.0061
COC(=O)C1=C(C2CCN(c3ncc(OC)c(C(=O)O)n3)CC2)NC(c2nccs2)=NC1c1ccc(F)c(F)c1C (single isomer, unassigned) [II-95-B, 2-(4-(6-(3,4-Difluoro-2-methylphenyl)-5-(methoxycarbonyl)-2-(thiazol-2-yl)-3,6-dihydropyrimidin-4-yl)piperidin-1-yl)-5-methoxypyrimidine-4-carboxylic Acid]	25.8	0.0086
CCOC(=O)C1=C(C2CCN(c3ncc(OCC)c(C(=O)O)n3)CC2)NC(c2nccs2)=NC1c1ccc(F)c(F)c1Cl (single isomer, unassigned) [II-96-B, 2-(4-(6-(2-chloro-3,4-difluorophenyl)-5-(ethoxycarbonyl)-2-(thiazol-2-yl)-3,6-dihydropyrimidin-4-yl)piperidin-1-yl)-5-ethoxypyrimidine-4-carboxylic Acid]	16.3	0.0051
CCOC(=O)C1=C(C2CCN(c3ncc(N(C)C)c(C(=O)O)n3)CC2)NC(c2nccs2)=NC1c1cccc(F)c1Br (single isomer, unassigned) [II-97-B, 2-(4-(6-(2-Bromo-3-fluorophenyl)-5-(ethoxycarbonyl)-2-(thiazol-2-yl)-3,6-dihydropyrimidin-4-yl)piperidin-1-yl)-5-(dimethylamino)pyrimidine-4-carboxylic Acid]	27.6	0.014
COC(=O)C1=C(C2CCN(c3ncc(C)c(C(=O)O)n3)CC2)NC(c2nccs2)=NC1c1cccc(F)c1Br (single isomer, unassigned) [II-98-B, 2-(4-(6-(2-Bromo-3-fluorophenyl)-5-(methoxycarbonyl)-2-(thiazol-2-yl)-3,6-dihydropyrimidin-4-yl)piperidin-1-yl)-5-methylpyrimidine-4-carboxylic Acid]	21.4	0.02
COC(=O)C1=C(C2CCN(c3ncc(C)c(C(=O)O)n3)CC2)NC(c2nccs2)=NC1c1ccc(F)cc1Br (single isomer, unassigned) [II-99-B, 2-(4-(6-(2-Bromo-4-fluorophenyl)-5-(methoxycarbonyl)-2-(thiazol-2-yl)-3,6-dihydropyrimidin-4-yl)piperidin-1-yl)-5-methylpyrimidine-4-carboxylic Acid]	20.7	0.0073
CCOC(=O)C1=C(C2CCN(c3ncc(N(C)C)c(C(=O)O)n3)CC2)NC(c2nccs2)=NC1c1ccc(F)cc1Br (single isomer, unassigned) [II-100-B, 2-(4-(6-(2-bromo-4-fluorophenyl)-5-(ethoxycarbonyl)-2-(thiazol-2-yl)-3,6-dihydropyrimidin-4-yl)piperidin-1-yl)-5-(dimethylamino)pyrimidine-4-carboxylic Acid]	24.5	0.022
COC(=O)C1=C(C2CCN(c3ccc(CCC(=O)O)cn3)CC2)NC(c2nccs2)=NC1c1ccc(F)cc1Cl (single isomer, unassigned) [II-101-B, 3-(6-(4-(6-(2-Chloro-4-fluorophenyl)-5-(methoxycarbonyl)-2-(thiazol-2-yl)-3,6-dihydropyrimidin-4-yl)piperidin-1-yl)pyridin-3-yl)propanoic Acid]	16.6	< 0.0046
CCOC(=O)Cc1ccnc(N2CCC(C3=C(C(=O)OC)C(c4ccc(F)cc4Cl)N=C(c4nccs4)N3)CC2)n1 (single isomer, unassigned) [XI-13-S, Methyl 4-(2-chloro-4-fluorophenyl)-6-(1-(4-(2-ethoxy-2-oxoethyl)pyrimidin-2-yl)piperidin-4-yl)-2-(thiazol-2-yl)-1,4-dihydropyrimidine-5-carboxylate]	> 100	0.15
CCOC(=O)C1=C(C2CCN(c3nc(C(=O)OCC)co3)C2)NC(c2nccs2)=NC1c1ccc(F)c(F)c1Cl (single isomer, unassigned) [XI-85-M, Ethyl 2-(3-(6-(2-chloro-3,4-difluorophenyl)-5-(ethoxycarbonyl)-2-(thiazol-2-yl)-3,6-dihydropyrimidin-4-yl)pyrrolidin-1-yl)oxazole-4-carboxylate]	11.6	0.77
